Measurements as given in patent US20230002352A1, “SULFONAMIDE DERIVATIVES AS CTPS1 INHIBITORS” (Step Pharma S.A.S., priority 2019, published 2023).
Where two headings read alike, the source gives them in different places.

Columns and labels:
[1] = biological target: T1, human CTPS1 (Homo sapiens, UniProt P17812); assay: Human CTPS1 enzyme inhibition (ADP-Glo Max assay); type: biochemical; settings: ADP-Glo Max assay, read-out: CTPS1 (Human CTPS1 Enzyme Inhibition data grouped by potency range, IC50)
T1 construct: purchased Proteros biostructures GmbH
T1 sequence (P17812 1-591): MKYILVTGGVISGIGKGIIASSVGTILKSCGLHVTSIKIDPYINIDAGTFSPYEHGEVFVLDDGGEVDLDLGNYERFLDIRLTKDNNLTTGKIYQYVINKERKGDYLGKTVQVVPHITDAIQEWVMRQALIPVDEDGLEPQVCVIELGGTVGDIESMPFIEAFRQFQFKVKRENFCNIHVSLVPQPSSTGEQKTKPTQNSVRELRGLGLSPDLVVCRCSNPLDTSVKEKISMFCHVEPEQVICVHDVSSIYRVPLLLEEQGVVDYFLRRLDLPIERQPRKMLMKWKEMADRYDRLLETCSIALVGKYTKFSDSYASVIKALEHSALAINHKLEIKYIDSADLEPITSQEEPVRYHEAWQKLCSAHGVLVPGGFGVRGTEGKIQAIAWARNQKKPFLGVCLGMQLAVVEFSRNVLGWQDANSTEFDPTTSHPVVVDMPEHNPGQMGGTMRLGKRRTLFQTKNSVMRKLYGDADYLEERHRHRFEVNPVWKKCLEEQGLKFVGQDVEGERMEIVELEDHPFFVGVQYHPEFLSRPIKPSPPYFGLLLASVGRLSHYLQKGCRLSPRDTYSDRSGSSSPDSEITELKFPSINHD
How it was run: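 Full-length FLAG-His-tagged human CTPS1 and compound were preincubated 10 min at 25 °C in 50 mM Tris pH 8.0, 10 mM MgCl2, 0.01% Tween-20, 2 mM L-cysteine. Substrate mix: ATP 0.31 mM, GTP 0.034 mM, UTP 0.48 mM, glutamine 0.186 mM; linear-phase reaction at 25 °C. ADP-Glo Max luminescence; IC50 from inhibition curve.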

[2] = test system: human CTPS1 versus CTPS2; assay: Human CTPS1 versus CTPS2 selectivity assessment by RapidFire/MS analysis; type: biochemical
Protocol: Biological Example 2—RapidFire/MS-Based Enzyme Selectivity Assays.
Human CTPS1 Versus CTPS2 Selectivity Assessment by RapidFire/MS Analysis.
The enzyme inhibitory activities against each target isoform of interest may be determined for the compounds of the invention using an optimised RapidFire high-throughput mass spectrometry (RF/MS) assay format. RF/MS assays for both human CTPS1 and CTPS2 may be performed in assay buffer consisting of 50 mM HEPES (Merck), 20 mM MgCl2, 5 mM KCl, 1 mM DTT, 0.01% Tween-20, pH to 8.0 accordingly. Human full-length active C-terminal FLAG-His-tag CTPS1 (UniProtKB-P17812, CTPS[1-591]-[…]) may be obtained from Proteros biostructures GmbH. Human full length active C-terminal FLAG-His-Avi tagged CTPS2 (UniProtKB-Q9NRF8, CTPS2 [1-586]-[…]) may be obtained from Harker Bio.
Human CTPS (1 or 2) protein may be prepared in 1× assay buffer to the final working protein concentration required for the reaction. A 2 uL volume per well of 2×CTPS (1 or 2) protein may be mixed with 40 nL of compound using acoustic (ECHO) delivery and incubated for 10 minutes at 25° C. Each isoform enzymatic reaction may be subsequently initiated by addition of 2 uL per well of a 2× substrate mix in assay buffer. For hCTPS1: ATP (0.3 mM), UTP (0.2 mM), GTP (0.07 mM) and L-glutamine (0.1 mM). For hCTPS2: ATP (0.1 mM), UTP (0.04 mM), GTP (0.03 mM) and L-glutamine (0.1 mM). Each mixture may be incubated for an appropriate amount of time per isoform within the determined linear phase of the reaction at 25° C. A 60 uL volume of stop solution (1% formic acid with 0.5 uM ^13C9-^15N3-CTP in H2O) may be added and the plate immediately heat-sealed and centrifuged for 10 minutes at 4,000 rpm. Following centrifugation, plates may be loaded onto the Agilent RapidFire microfluidic solid phase extraction system coupled to an AP14000 triple quadrupole mass spectrometer (RF/MS) for analysis.
In all cases, the enzyme converts UTP to CTP. Highly specific and sensitive multiple reaction monitoring (MRM) MS methods may be optimised for the detection of the enzymatic reaction product, CTP, and the stable isotope labelled product standard ^13C9-^15N3-CTP. Readout for data analysis may be calculated as the ratio between the peak area of the product CTP and the internal standard ^13C9-^15N3-CTP. For data reporting, the following equation may be used: […]
For each screening plate, the means of the negative (DMSO) and positive control values were used for the calculation of the respective assay window (S/B) and Z′ values. The median of the respective control values was used for calculation of percent inhibition according to the following equation: […]
Percentage inhibition was then plotted against compound concentration, and the 50% inhibitory concentration (IC50) was determined from the resultant concentration-response curve.
Fold selectivity between CTPS1 and CTPS2 was subsequently calculated according to the following equation: […]

IC50 ([1]; Table 24) [nM] | IC50 ([1]; Table 23) [nM] | SMILES | Selectivity (fold selectivity between CTPS1 and CTPS2) ([2]; Table 27) | Selectivity (fold selectivity between CTPS1 and CTPS2) ([2]; Table 26)
≤ 100 |  | CCOc1cncc(-c2ccc(NC(=O)C3(c4ccnc(NS(=O)(=O)C5CC5)n4)CCC(N(C)C)CC3)nc2)n1 (single isomer, unassigned) [Example P229, 1-(2-(cyclopropanesulfonamido)pyrimidin-4-yl)-4-(dimethylamino)-N-(5-(6-ethoxypyrazin-2-yl)pyridin-2-yl)cyclohexane-1-carboxamide] | +++ (>60 fold (+++)) | 
≤ 100 |  | CCOc1cncc(-c2ccc(NC(=O)C3(c4ccnc(NS(=O)(=O)C5CC5)n4)CCC(N(C)C)CC3)nc2)n1 (single isomer, unassigned) [Example P230, 1-(2-(cyclopropanesulfonamido)pyrimidin-4-yl)-4-(dimethylamino)-N-(5-(6-ethoxypyrazin-2-yl)pyridin-2-yl)cyclohexane-1-carboxamide] | +++ (>60 fold (+++)) | 
 | ≤ 100 | CCOc1cncc(-c2ccc(NC(=O)C3(c4ccnc(NS(=O)(=O)C5CC5)n4)CCCC3)cc2)n1 [Example P2, 1-(2-(Cyclopropanesulfonamido)pyrimidin-4-yl)-N-(4-(6-ethoxypyrazin-2-yl)phenyl)cyclopentanecarboxamide] |  | +++ (>60 fold (+++))
 | ≤ 100 | CC(C)Oc1cncc(-c2ccc(NC(=O)Cc3ccnc(NS(=O)(=O)C4CC4)n3)c(F)c2)n1 [Example P12] |  | ++ (>30-60 fold (++))
 | 100 to 1000 | O=C(Cc1ccnc(NS(=O)(=O)C2CC2)n1)Nc1ccc(-c2cccnc2)cc1 [Example P16] |  | ++ (>30-60 fold (++))
 | ≤ 100 | CCOc1cncc(-c2ccc(NC(=O)Cc3ccnc(NS(=O)(=O)C4CC4)n3)cc2)n1 [Example P18, 2-(2-(Cyclopropanesulfonamido)pyrimidin-4-yl)-N-(4-(6-ethoxypyrazin-2-yl)phenyl)acetamide] |  | ++ (>30-60 fold (++))
 | ≤ 100 | CC(C)Oc1cncc(-c2ccc(NC(=O)Cc3ccnc(NS(=O)(=O)C4CC4)n3)cc2)n1 [Example P21] |  | ++ (>30-60 fold (++))
 | ≤ 100 | CCOc1cncc(-c2ccc(NC(=O)C(C)(C)c3ccnc(NS(=O)(=O)C4CC4)n3)nc2)n1 [Example P31] |  | +++ (>60 fold (+++))
 | ≤ 100 | CCOc1cncc(-c2ccc(NC(=O)C(C)(C)c3ccnc(NS(=O)(=O)C4CC4)n3)c(C#N)c2)n1 [Example P34] |  | + (2-30 fold (+))
 | ≤ 100 | CCOc1cncc(-c2ccc(NC(=O)C(C)(C)c3ccnc(NS(=O)(=O)C4CC4)n3)c(F)c2)n1 [Example P38] |  | + (2-30 fold (+))
 | ≤ 100 | CC(C)Oc1cncc(-c2ccc(NC(=O)C(C)(C)c3ccnc(NS(=O)(=O)C4CC4)n3)c(F)c2)n1 [Example P39] |  | + (2-30 fold (+))
 | 1000 to 10000 | CC(C)(C(=O)Nc1ccc(-c2cccnc2)cc1)c1ccnc(NS(=O)(=O)C2CC2)n1 [Example P59] |  | + (2-30 fold (+))
 | 100 to 1000 | CCOc1cncc(-c2ccc(NC(=O)C(C)(C)c3nc(NS(=O)(=O)C4CC4)ncc3F)cc2)n1 [Example P68] |  | ++ (>30-60 fold (++))
 | 1000 to 10000 | CCOc1cncc(-c2ccc(NC(=O)C(C)(C)c3nc(NS(=O)(=O)C4CC4)ncc3C)cc2)n1 [Example P70] |  | + (2-30 fold (+))
 | 100 to 1000 | CCOc1cncc(-c2ccc(NC(=O)C(C)(C)c3ccnc(NS(=O)(=O)CC)n3)cc2)n1 [Example P74] |  | ++ (>30-60 fold (++))
 | 100 to 1000 | CCOc1cncc(-c2ccc(NC(=O)C(C)(C)c3ccnc(NS(C)(=O)=O)n3)nc2)n1 [Example P76] |  | ++ (>30-60 fold (++))
 | ≤ 100 | CCOc1cncc(-c2ccc(NC(=O)C3(c4ccnc(NS(=O)(=O)C5CC5)n4)CC3)cc2)n1 [Example P83] |  | +++ (>60 fold (+++))
 | ≤ 100 | CCOc1cncc(-c2ccc(NC(=O)C3(c4ccnc(NS(=O)(=O)C5CC5)n4)CCOCC3)nc2)n1 [Example P115, 4-(2-(Cyclopropanesulfonamido)pyrimidin-4-yl)-N-(5-(6-ethoxypyrazin-2-yl)pyridin-2-yl)tetrahydro-2H-pyran-4-carboxamide] |  | +++ (>60 fold (+++))
 | ≤ 100 | CCOc1cncc(-c2ccc(C(=O)NCc3ccnc(NS(=O)(=O)C4CC4)n3)cc2)n1 [Example P118] |  | +++ (>60 fold (+++))
 | 100 to 1000 | CC(C)(C(=O)Nc1ccc(-c2cncc(C3CC3)n2)cn1)c1ccnc(NS(=O)(=O)C2CC2)n1 [Example P125] |  | ++ (>30-60 fold (++))
 | 100 to 1000 | CC(C)(C(=O)Nc1ccc(-c2cncc(C3CC3)n2)cc1F)c1ccnc(NS(=O)(=O)C2CC2)n1 [Example P128] |  | + (2-30 fold (+))
 | 100 to 1000 | CC(C)c1cncc(-c2ccc(NC(=O)C(C)(C)c3ccnc(NS(=O)(=O)C4CC4)n3)cc2)n1 [Example P132] |  | ++ (>30-60 fold (++))
 | ≤ 100 | CCOc1cncc(-c2ccc(NC(=O)C3(c4ccnc(NS(=O)(=O)C5CC5)n4)CCCC3)nc2)n1 [Example P136] |  | +++ (>60 fold (+++))
 | ≤ 100 | CCOc1cncc(-c2ccc(NC(=O)C3(c4ccnc(NS(=O)(=O)C5CC5)n4)CCOCC3)c(F)c2)n1 [Example P143] |  | +++ (>60 fold (+++))
 | ≤ 100 | CCOc1cncc(-c2ccc(NC(=O)C(CCOC)c3ccnc(NS(=O)(=O)C4CC4)n3)nc2)n1 (centres unmarked) [Example P145] |  | +++ (>60 fold (+++))
 | ≤ 100 | CCOc1cncc(-c2ccc(NC(=O)C(CCOC)c3ccnc(NS(=O)(=O)C4CC4)n3)c(F)c2)n1 (centres unmarked) [Example P146] |  | +++ (>60 fold (+++))
 | ≤ 100 | CCOc1cncc(-c2ccc(NC(=O)C(F)(CC)c3ccnc(NS(C)(=O)=O)n3)nc2)n1 (centres unmarked) [Example P151] |  | +++ (>60 fold (+++))
 | ≤ 100 | CCOc1cncc(-c2cnc(NC(=O)C(CC)c3ccnc(NS(=O)(=O)C4CC4)n3)c(C)c2)n1 (centres unmarked) [Example P155] |  | + (2-30 fold (+))
